Experimental data from patent publication US7763626B2, “Compositions and method for enhancing the therapeutic activity of opiods in treatment of pain” (Trustees of Dartmouth College, priority 2004, dated 2010).

Key:
Format in all cases: in vivo, rat
Male Sprague-Dawley rats = test: Hot water tail-flick test, morphine withdrawal-induced thermal hyperalgesia
Procedure: Male Sprague-Dawley rats (175-200 grams, Harlan, Indianapolis, Ind.) were divided into two groups (n=8 per group). Rats received subcutaneous injections of either saline or morphine (10 mg/kg; Sigma, St. Louis, Mo.) twice daily at 0800 to 0900 and 1600-1700 hour for 5 days in order to induce opioid tolerance. Chronic morphine withdrawal-induced hyperalgesia and allodynia were assessed in the animals 16 hours after the last injection of morphine. Following the recording of morphine withdrawal-induced hyperalgesia and allodynia, animals were treated with morphine (5 microgram) acutely via lumbar intrathecal injection to study the expression of morphine tolerance. Acute analgesic activity or intrathecal morphine in morphine-tolerant and chronic aline-treated rats were evaluated by mechanical (Analgesy-Meter) and thermal (tail-flick) test paradigms. Behaviors recorded prior to the acute administration of intrathecal morphine served as the basal latency measures.
With an understanding of the effects of morphine alone, separate groups of rats (n=8) received with saline or morphine (10 mg/kg subcutaneously, twice daily for 5 days) and also received once daily injections (at 1100 to 1200 hour) of propentofylline (1 and 10 micrograms) or saline via direct lumbar puncture during the induction of morphine tolerance. Again, chronic morphine withdrawal-induced hyperalgesia and allodynia were assessed in the animals 16 hours after the last subcutaneous morphine injection. Following the recording of morphine withdrawal-induced hyperalgesia and allodynia, animals were treated with morphine (5 micrograms) acutely via lumbar puncture to study the expression of morphine tolerance. As before, the acute analgesic activity of intrathecal morphine in morphine-tolerant and saline-injected rats was evaluated by mechanical (Analgesy-Meter) and thermal (tail-flick) test paradigms. Behavior recorded prior to the acute administration of intrathecal morphine served as the basal latency.
Thermal nociceptive thresholds were evaluated by the hot water tail-flick test that has been described previously (Bian, D. et al. 1999. Brain Res. 831:55-63). The test consisted of immersing the tail of the rats in water maintained at 49° C. and then recording the latency to a rapid flick. A 15 second cut-off time was used. Again, the total number of responses elicited during three successive trials separated by at least 10 minutes was recorded and then expressed as the % maximal possible effect. The tester was again blinded to the test groups.

IL-6 mRNA = test: RNase protection assay, cytokine mRNA at L5 lumbar spinal cord; details: propentofylline 10 micrograms intrathecally for 5 days during induction of morphine tolerance
Procedure: (§1) After behavioral testing for reactions to the combined treatment, rats were sacrificed and decapitated. An 18-gauge needle was inserted into the caudal end of the vertebral column and the spinal cord was expelled with ice-cold phosphate-buffered saline. The spinal cord was frozen immediately on dry ice and stored at −80° C. until homogenization. The L5 lumbar spinal cord was isolated from the intact frozen cord at the time of mRNA and protein quantification. Total RNA was isolated from the L5 spinal cord by the TRIzol extraction method (Invitrogen Corporation, Carlsbad, Calif).
(§2) Assessment of the temporal cytokine mRNA expression in the L5 lumber spinal cord was performed using a Ribonuclease Protection Assay technique. A Multiprobe RPAse kit was used (Pharmingen, San Diego, Calif.). Total RNA (15 μg) was hybridized to ^32P-labeled antisense RNA probes transcribed using the rat cytokine-1 (rCK-1) multiprobe template set resulting in double-stranded target RNA. After Rnase digestion, protected RNA and probe were resolved on a denaturing polyacrylamide gel and visualized by overnight autoradiography. Quantitative image analysis was employed to compare mRNA levels based on band intensities for each cytokine. The intensity of each band was measured using image analysis software and assigned an arbitrary unit based on the measured intensity levels. The value for the normalized quantity for each band was obtained by dividing by the L32 house-keeping gene control. Individual mRNA concentration was calculated as the ratio of the expression compared with saline-treated animals in which normal values were weighted as 1.

IL-1β mRNA = test: as above; details: propentofylline 10 micrograms intrathecally for 5 days during induction of morphine tolerance
Procedure: as §1, §2

CCCn1cnc2c1c(=O)n(CCCCC(C)=O)c(=O)n2C [propentofylline]
Tail-flick latency (Male Sprague-Dawley rats; 16 hours after last injection, morphine 10 mg/kg s.c. twice daily 5 days and/or propentofylline 10 micrograms intrathecally once daily 5 days): 5.1 ± 0.3 s | morphine withdrawal-induced noxious thermal hyperalgesia (Male Sprague-Dawley rats; 16 hours after last morphine injection (10 mg/kg s.c. twice daily 5 days), propentofylline 1 and 10 micrograms intrathecally for 5 days during induction of tolerance): significantly attenuated | morphine-induced mRNA upregulation for IL-6 (IL-6 mRNA): significantly attenuated | morphine-induced mRNA upregulation for IL-1β (IL-1β mRNA): significantly attenuated
